Test results as given in US20260297060A1, “COMPOUNDS FOR THE DEGRADATION OF MUTANT BRAF” (C4 THERAPEUTICS, INC., priority 2023, published 2026).
Like-named read-outs stand apart in the source and are kept apart here.

Tests used:
BRAF V600E = biological target: T1, BRAF V600E (Homo sapiens, UniProt P15056+Q96SW2, V600E); assay: BRAF V600E HiBiT Degradation Assay; assay type: cell-based; details: A375.10 cells, BRAF V600E
T1 construct: knock-in of the HiBiT tag to the endogenous BRAF V600E locus; host or cells: A375.10 (A375 clonal line, CRISPR HiBiT knock-in at the endogenous BRAF V600E locus)
T1 sequence (P15056 whole entry V600E): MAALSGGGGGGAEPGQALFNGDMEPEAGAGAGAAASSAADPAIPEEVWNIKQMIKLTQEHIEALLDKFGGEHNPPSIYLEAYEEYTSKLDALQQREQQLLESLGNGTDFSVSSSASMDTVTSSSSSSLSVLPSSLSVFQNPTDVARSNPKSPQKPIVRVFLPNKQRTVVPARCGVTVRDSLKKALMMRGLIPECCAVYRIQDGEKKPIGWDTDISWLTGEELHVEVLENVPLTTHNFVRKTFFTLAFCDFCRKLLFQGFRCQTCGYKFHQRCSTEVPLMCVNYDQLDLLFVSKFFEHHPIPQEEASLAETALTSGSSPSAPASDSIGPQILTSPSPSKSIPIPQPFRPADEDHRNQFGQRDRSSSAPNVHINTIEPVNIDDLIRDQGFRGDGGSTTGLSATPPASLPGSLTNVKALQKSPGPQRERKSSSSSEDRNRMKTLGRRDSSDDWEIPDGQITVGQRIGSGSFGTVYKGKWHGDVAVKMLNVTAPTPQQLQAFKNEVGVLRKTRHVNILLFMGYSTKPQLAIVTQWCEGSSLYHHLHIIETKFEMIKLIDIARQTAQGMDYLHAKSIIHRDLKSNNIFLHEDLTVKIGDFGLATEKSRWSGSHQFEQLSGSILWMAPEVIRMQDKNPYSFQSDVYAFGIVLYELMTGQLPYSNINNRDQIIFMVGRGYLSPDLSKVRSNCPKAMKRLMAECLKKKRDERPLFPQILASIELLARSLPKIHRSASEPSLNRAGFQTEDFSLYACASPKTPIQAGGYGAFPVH
T1 sequence (Q96SW2 whole entry): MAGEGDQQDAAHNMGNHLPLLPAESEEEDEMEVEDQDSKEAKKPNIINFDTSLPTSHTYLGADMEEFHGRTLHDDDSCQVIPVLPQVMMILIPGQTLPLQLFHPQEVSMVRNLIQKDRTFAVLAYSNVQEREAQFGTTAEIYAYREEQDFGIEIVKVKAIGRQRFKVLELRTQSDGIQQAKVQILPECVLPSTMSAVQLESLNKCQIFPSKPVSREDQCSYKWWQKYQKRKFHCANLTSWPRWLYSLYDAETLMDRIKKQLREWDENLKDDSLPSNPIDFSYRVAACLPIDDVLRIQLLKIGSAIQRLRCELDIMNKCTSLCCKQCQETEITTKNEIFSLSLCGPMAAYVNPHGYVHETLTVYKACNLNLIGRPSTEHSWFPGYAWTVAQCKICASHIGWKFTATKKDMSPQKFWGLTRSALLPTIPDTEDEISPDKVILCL
T1 sequence (Q16531 whole entry partner): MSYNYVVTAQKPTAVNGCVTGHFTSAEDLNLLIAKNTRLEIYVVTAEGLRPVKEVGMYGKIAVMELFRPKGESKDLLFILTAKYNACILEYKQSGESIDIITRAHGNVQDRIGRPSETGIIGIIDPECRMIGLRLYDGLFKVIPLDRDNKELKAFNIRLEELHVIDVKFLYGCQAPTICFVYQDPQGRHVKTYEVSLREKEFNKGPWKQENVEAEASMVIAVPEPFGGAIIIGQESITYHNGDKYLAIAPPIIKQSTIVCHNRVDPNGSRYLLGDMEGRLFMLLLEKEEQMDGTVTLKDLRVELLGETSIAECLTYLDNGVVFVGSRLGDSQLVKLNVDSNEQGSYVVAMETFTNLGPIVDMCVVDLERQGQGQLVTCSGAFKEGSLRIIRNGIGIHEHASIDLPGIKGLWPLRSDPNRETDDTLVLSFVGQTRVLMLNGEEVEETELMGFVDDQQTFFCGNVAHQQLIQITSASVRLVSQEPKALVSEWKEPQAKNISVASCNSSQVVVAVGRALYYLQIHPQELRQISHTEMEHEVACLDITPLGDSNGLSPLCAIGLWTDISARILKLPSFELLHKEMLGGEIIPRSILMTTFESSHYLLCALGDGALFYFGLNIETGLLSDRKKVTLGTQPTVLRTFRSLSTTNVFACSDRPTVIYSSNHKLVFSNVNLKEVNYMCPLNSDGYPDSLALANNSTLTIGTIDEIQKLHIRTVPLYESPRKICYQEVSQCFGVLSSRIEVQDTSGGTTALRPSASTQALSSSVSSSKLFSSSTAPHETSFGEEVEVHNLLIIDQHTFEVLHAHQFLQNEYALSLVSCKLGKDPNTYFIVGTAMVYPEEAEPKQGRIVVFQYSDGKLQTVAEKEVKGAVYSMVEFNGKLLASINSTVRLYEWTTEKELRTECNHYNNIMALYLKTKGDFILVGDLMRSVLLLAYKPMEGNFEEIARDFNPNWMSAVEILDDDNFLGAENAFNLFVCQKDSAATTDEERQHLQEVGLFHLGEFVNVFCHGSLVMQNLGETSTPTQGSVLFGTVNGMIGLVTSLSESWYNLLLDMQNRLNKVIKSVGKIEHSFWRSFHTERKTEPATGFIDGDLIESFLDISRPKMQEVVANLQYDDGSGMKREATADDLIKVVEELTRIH
How it was run: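 Endogenous HiBiT knock-in on BRAF V600E in A375 cells (clone A375.10); 11-point half-log series, top 10 μM, 2, 6 or 24 h at 37° C. Lytic HiBiT luminescence, background-subtracted, normalized to DMSO; 4-parameter fit gives DC50, Emax (residual protein) and IP (inflection point).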

A375-NRAS^Q61K cells = assay: CTGlo Cell Viability Assay, A375-NRAS^Q61K (A375.11) cells, 96 hours; assay type: cell-based, human; details: Homo sapiens, 96 h, A375.11 (A375-NRAS^Q61K) cells; for Emax: lowest % viability achieved
How it was run: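 A375 cells carrying BRAF V600E and NRAS Q61K were seeded at 250 cells/well with a 10-point half-log dose series (max 10 μM final). After 96 h at 37 °C, viability was read as ATP luminescence (CellTiter-Glo), background-subtracted and normalized to DMSO (100%). GI50 from 4-parameter fit; Emax is the lowest % viability.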

[1] = 2 hours, inflection point, read-out: HiBiT-Degradation A375.10 BRAF 2 hours IP
[2] = 2 hours, read-out: HiBiT-Degradation A375.10 BRAF 2 hours DC50
[3] = 2 hours, residual protein remaining, read-out: HiBiT-Degradation A375.10 BRAF 2 hours Emax
[4] = HiBiT, 24 hours, read-out: HiBiT-Degradation A375.10 BRAF 24 hours DC50
[5] = HiBiT, 24 hours, read-out: HiBiT-Degradation A375.10 BRAF 24 hours Emax
[6] = HiBiT, 24 hours, read-out: HiBiT-Degradation A375.10 BRAF 24 hours IP

| DC50 (BRAF V600E; [1]) [µM] | DC50 (BRAF V600E; [2]) [µM] | Emax (BRAF V600E; [3]) [%] | DC50 (BRAF V600E; [4]) [µM] | Emax (BRAF V600E; [5]) [%] | DC50 (BRAF V600E; [6]) [µM] | GI50 (A375-NRAS^Q61K cells) [µM] | SMILES | Emax (A375-NRAS^Q61K cells) [%] |
| --- | --- | --- | --- | --- | --- | --- | --- | --- |
| < 1 | 1 to 10 | 50 to 90 | < 1 | < 50 | < 1 | 1 to 10 | CCN(C)S(=O)(=O)Nc1ccc(F)c(C(=O)c2ccc3ncn(C4CC5(CCN(C6CC7(C6)CN(c6cc8c(cc6F)c(N6CCC(=O)NC6=O)nn8C)C7)CC5)C4)c(=O)c3c2)c1F (stereo not shown) [Compound 304, 3-[7-[2-[3-(2,4-dioxohexahydropyrimidin-1-yl)-5-fluoro-1-methyl-indazol-6-yl]-2-azaspiro[3.3]heptan-6-yl]-7-azaspiro[3.5]nonan-2-yl]-6-[3-[[ethyl(methyl)sulfamoyl]amino]-2,6-difluoro-benzoyl]-4-oxo-quinazoline] | 50 to 90 |
| < 1 | < 1 | < 50 | < 1 | < 50 | < 1 | < 1 | CCN(C)S(=O)(=O)Nc1ccc(F)c(Oc2ccc3ncn(C4CC5(C4)CN(C4CC6(C4)CN(c4cc7c(cc4F)c(N4CCC(=O)NC4=O)nn7C)C6)C5)c(=O)c3c2)c1C#N (stereo not shown) [Compound 305, 6-[2-cyano-3-[[ethyl(methyl)sulfamoyl]amino]-6-fluoro-phenoxy]-3-[2-[2-[3-(2,4-dioxohexahydropyrimidin-1-yl)-5-fluoro-1-methyl-indazol-6-yl]-2-azaspiro[3.3]heptan-6-yl]-2-azaspiro[3.3]heptan-6-yl]-4-oxo-quinazoline] | 50 to 90 |
| < 1 | < 1 | 50 to 90 | – | – | – | > 10 | CCN(C)S(=O)(=O)Nc1ccc(F)c(C(=O)c2ccc3ncn(C4CC5(C4)CN(C4CC6(C4)CN(c4cc7c(cc4F)c(N4CCC(=O)NC4=O)nn7C)C6)C5)c(=O)c3c2)c1F (stereo not shown) [Compound 306, 3-[2-[2-[3-(2,4-dioxohexahydropyrimidin-1-yl)-5-fluoro-1-methyl-indazol-6-yl]-2-azaspiro[3.3]heptan-6-yl]-2-azaspiro[3.3]heptan-6-yl]-6-[3-[[ethyl(methyl)sulfamoyl]amino]-2,6-difluoro-benzoyl]-4-oxo-quinazoline] | 50 to 90 |
| < 1 | > 10 | 50 to 90 | < 1 | < 50 | < 1 | > 10 | CCN(C)S(=O)(=O)Nc1ccc(F)c(Oc2ccc3ncn([C@H]4COC5(C4)CN(C4CCN(c6cc7c(cc6F)c(N6CCC(=O)NC6=O)nn7C)CC4)C5)c(=O)c3c2)c1C#N [Compound 309, (7R)-7-[6-[2-cyano-3-[[ethyl(methyl)sulfamoyl]amino]-6-fluoro-phenoxy]-4-oxo-quinazolin-3-yl]-2-[1-[3-(2,4-dioxohexahydropyrimidin-1-yl)-5-fluoro-1-methyl-indazol-6-yl]-4-piperidyl]-5-oxa-2-azaspiro[3.4]octane] | 50 to 90 |
| < 1 | < 1 | < 50 | < 1 | < 50 | < 1 | 1 to 10 | CCN(C)S(=O)(=O)Nc1ccc(F)c(Oc2ccc3ncn([C@H]4COC5(C4)CN(C4CC6(C4)CN(c4cc7c(cc4F)c(N4CCC(=O)NC4=O)nn7C)C6)C5)c(=O)c3c2)c1C#N [Compound 310, (7R)-7-[6-[2-cyano-3-[[ethyl(methyl)sulfamoyl]amino]-6-fluoro-phenoxy]-4-oxo-quinazolin-3-yl]-2-[2-[3-(2,4-dioxohexahydropyrimidin-1-yl)-5-fluoro-1-methyl-indazol-6-yl]-2-azaspiro[3.3]heptan-6-yl]-5-oxa-2-azaspiro[3.4]octane] | 50 to 90 |
| < 1 | 1 to 10 | 50 to 90 | < 1 | < 50 | < 1 | 1 to 10 | CCN(C)S(=O)(=O)Nc1ccc(F)c(Oc2ccc3ncn([C@@H]4COC5(C4)CN(C4CC6(C4)CN(c4cc7c(cc4F)c(N4CCC(=O)NC4=O)nn7C)C6)C5)c(=O)c3c2)c1C#N [Compound 311, (7S)-7-[6-[2-cyano-3-[[ethyl(methyl)sulfamoyl]amino]-6-fluoro-phenoxy]-4-oxo-quinazolin-3-yl]-2-[2-[3-(2,4-dioxohexahydropyrimidin-1-yl)-5-fluoro-1-methyl-indazol-6-yl]-2-azaspiro[3.3]heptan-6-yl]-5-oxa-2-azaspiro[3.4]octane] | 50 to 90 |
| < 1 | < 1 | 50 to 90 | < 1 | < 50 | < 1 | < 1 | CCN(C)S(=O)(=O)Nc1ccc(F)c(Oc2ccc3ncn(C4CC5(C4)CN(CC4CN(c6cc7c(cc6F)c(N6CCC(=O)NC6=O)nn7C)C4)C5)c(=O)c3c2)c1C#N [Compound 313] | 50 to 90 |
| < 1 | < 1 | < 50 | < 1 | < 50 | < 1 | < 1 | CCN(C)S(=O)(=O)Nc1ccc(F)c(Oc2ccc3ncn(C4CC5(C4)CN(C4CC6(CCN(c7cc8c(cc7F)c(N7CCC(=O)NC7=O)nn8C)CC6)C4)C5)c(=O)c3c2)c1C#N (stereo not shown) [Compound 314, 6-[2-cyano-3-[[ethyl(methyl)sulfamoyl]amino]-6-fluoro-phenoxy]-3-[2-[7-[3-(2,4-dioxohexahydropyrimidin-1-yl)-5-fluoro-1-methyl-indazol-6-yl]-7-azaspiro[3.5]nonan-2-yl]-2-azaspiro[3.3]heptan-6-yl]-4-oxo-quinazoline] | 50 to 90 |
